# Experimental data as given in patent US20250345350A1, “TREATING PAIN ASSOCIATED WITH CENTRAL SENSITIZATION” (Medicon Pharmaceuticals, Inc., priority 2022, published 2025).
# Key:
# [1] = test system: oxaliplatin-induced pain associated with central sensitization in C57BL/6J mice; experiment: Mechanical allodynia (von Frey), oxaliplatin-induced pain, topical PS 8% (Example 2); type: in vivo, mouse
# From the text: Food and water were available ad libitum.
# Protocol for the Treatment of Established Pain Associated with Central Sensitization with PS
# Paw withdrawn, licking or shaking were considered positive responses.
# [2] = test system: paclitaxel-induced central sensitization in C57/BL/6J mice; experiment: Cold allodynia (acetone test), paclitaxel model (Example 3); type: in vivo, mouse; conditions: PS 5% for 15 days; day 15
# Description: To determine the outcome of treatment, assessment of mechanical allodynia was performed. […] Both methods of assessing allodynia are described in Toma W, et al. Neuropharmacology 2017; 117:305-15. Mechanical and cold allodynia are determined at least one day apart in the same animal.
# The acetone test was used. Briefly, acetone was applied onto the plantar surface of each hind paw. The time each mouse spent licking, lifting, and/or shaking the hind paw recorded over 60 seconds was the score for cold allodynia. Measurements were performed on day-8 (before the first paclitaxel injection), the day of starting treatment (day 0) and then on day 15.
# [3] = test system: chronic constriction injury-induced PTPN in C57BL/6J mice; experiment: PWT of operated limb, PS applied to contralateral hind paw, PTPN model (Example 8); type: in vivo, mouse
# Description: Group 2: vehicle control (n=6) • 3. Group 3: PS 8% (n=6)
# The PWT test was performed on day 4.
# Additionally, in a second study, the speed at which PS can treat pain associated with PTPN was assessed by assessing the effect of PS on mechanical allodynia shortly after topical administration of PS. As above, PTPN was induced using chronic constriction injury, by ligating the left sciatic nerve, to induce neuropathic pain manifested as allodynia affecting the left limb of the mice. PS (as a 5% gel) was applied only once onto the contralateral (right) hind paw of mice, prior to determining mechanical allodynia on the operated limb at different time points post-dosing.
# Group 2: PS 5%, assessed at t=0.5 h post-dosing (n=5) • 3. Group 3: PS 5%, assessed at t=1.0 h post-dosing (n=5) • 4. Group 4: PS 5%, assessed at t=2.0 h post-dosing (n=5)
# [4] = test system: NTG-induced migraine in mice; experiment: PWT (von Frey), NTG-induced migraine mouse model, oral (Example 14); conditions: 30 min after oral dose given 30 min after NTG; PS 50 mg/kg, sulindac 33 mg/kg
# Description: In line with the earlier Examples, migraine was induced using 0.4 mg of NTG was administered sublingually in the form of a finely crushed 0.4 mg NTG tablet (Greenstone Brand).
# Group 1: baseline (i.e, no NTG treatment, n=6) • 2. Group 2: vehicle (n=6) • 3. […] Group 4: sulindac (n=6)
# Mechanical allodynia was determined using the method of von Frey filaments in line with that performed in the earlier Examples. […] The mechanical threshold, expressed as g, indicates the force of the von Frey filament to which the animal reacted.
compound,measurement,setting,value
"CCOP(=O)(OCC)OCCCCOC(=O)CC1=C(C)/C(=C/c2ccc([S+](C)[O-])cc2)c2ccc(F)cc21 (centres unmarked) [PS, phosphosulindac]","mechanical allodynia score, mean±SEM","[1]; after PS treatment (day 22), PS 8% ointment 3x/day",1.8 ± 0.09 g
same,"mechanical allodynia score, mean±SEM",[1]; day -15 baseline of PS group,1.76 ± 0.13 g
same,cold allodynia score (acetone test),[2],3.1 ± 0.4 s
same,"PWT, g Mean ± SEM","[3]; day 4, operated left limb, PS 8% gel on contralateral (right) hind paw 3 times a day for 4 days",1.16 ± 0.04 g
same,"PWT, g Mean ± SEM","[3]; t = 0.5 h post-dosing, PS 5% gel applied once on contralateral hind paw",1.24 ± 0.10 g
same,"PWT, g Mean ± SEM","[3]; t = 1.0 h post-dosing, PS 5% gel applied once on contralateral hind paw",1.16 ± 0.16 g
same,"PWT, g Mean ± SEM","[3]; t = 2.0 h post-dosing, PS 5% gel applied once on contralateral hind paw",1.10 ± 0.19 g
same,"PWT, g Mean ± SEM",[4],1.96 ± 0.49 g
